We go through 10 molecules from patent US9944654B2, “Nargenicin compounds and uses thereof as antibacterial agents” (priority 2014, dated 2018).

By IC50 is commonly meant the concentration that inhibits the measured activity by half.

Test [1] concerns the target T1, E. coli DnaE (DNA polymerase III α-subunit from Escherichia coli) (Escherichia coli, UniProt P10443).
T1 construct: EcDnaE (E. coli DnaE residues 1-1160); 6xHis (N); made in house; host or cells: E. coli BL21(DE3)
The test is described as follows: In vitro DnaE single enzyme assay (E. coli). The format is biochemical. Here is the method: (§1) Plasmids encoding EcDnaE (E. coli DnaE residues 1-1160) and SaDnaE (S. aureus DnaE residues 1-1065) with 6×His N-terminal tags, were overexpressed in BL21(DE3) and BL21-AI cells (Invitrogen), respectively. Cells were grown in LB media to an OD ˜0.45 pelleted and then resuspended in Minimal Media, as described in Pryor et al. (1997, Protein Expr Purif. 10:309-19), and inducer (0.4 mM IPTG or 0.2% arabinose) for 21 hours at 18° C. at 220 rpm. Cells were then harvested, frozen for 20 minutes at −80° C. and thawed. Pellets were resuspended in 1× Talon buffer (50 mM Sodium Phosphate, 300 mM Sodium Chloride, pH 7.4) +10% glycerol +Roche PI's (-EDTA). Cells were lysed with two passes through a French press, then centrifuged for 45 minutes at 40,000 rpm (70Ti, Beckman). Supernatant was bound to 5 mL TALON resin (CLONTECH) for 1 hour at room temperature on Nutator. TALON resin was washed with 10 mM imidizole, and DnaE was eluted with 250 mM imidizole. Eluate was concentrated and run on a size exclusion column (SEC200, GE Healthcare) in the following buffer; 25 mM HEPES, 30 mM NaCl,1 mM CaCl2, 5% glycerol, pH 7.9. Pool SEC fractions based on SDS-PAGE run, aliquot, freeze, and store at -80° C.
(§2) DnaE was diluted in 50 mM potassium phosphate pH 7.5, 5 mM BME, 10% glycerol and 200 mM NaCl prior to use.
(§3) The purpose of the DnaE single enzyme assay is to determine the ability of compounds to inhibit the DNA polymerase III α-subunit homolog from Staphylococcus aureus or the α-subunit from Escherichia coli without the other components of the replication machinery. The DnaE single enzyme assay was a modified version of the method, Standard Pol III Assay Using Activated DNA and Four dNTPs, described by Butler et al., 2008, Methods in Molecular Medicine: New Antibiotic Targets 142:25-36. Briefly, in 96-well plates, enzyme was added to a mixture containing 30 mM Tris-HCl pH 7.5, 20% glycerol, 4 mM DTT, 10 mM Mg acetate, 0.025 mM dATP, 0.025 mM dGTP, 0.025 mM dc:TP, 0.011 mM ^3H-dTTP 1 mCi/ml (Perkin-Elmer), and 0.298 mg/mL Dnase I (Sigma) treated “activated” Calf Thymus DNA (Worthington Biochemical). The assay was set up so that 5 μl of compound was distributed to the plates, 90 μl of reaction mix was added to the compound, and 5 μl of enzyme was added to start the reaction. Assays were initiated by the addition of 0.8 μg/ml E. coli or 0.05 μg/ml S. aureus DnaE, incubated for 30 min at 30° C., and terminated by the addition of a 20% trichloroacetic acid and 0.2% sodium pyrophosphate solution. Precipitated labeled DNA was collected on Glass-fiber Filtermat A using Micro96 Harvester, and the filters were washed, dried, and counted in a Microbeta Trilux (Perkin Elmer). Serial dilutions of compounds (in DMSO) were added to the plates before enzyme addition.

The target in test [2] is T2, S. aureus DnaE (DNA polymerase III α-subunit homolog from Staphylococcus aureus) (Staphylococcus aureus, UniProt Q5HF71).
T2 construct: SaDnaE (S. aureus DnaE residues 1-1065); 6xHis (N); made in house; host or cells: E. coli BL21-AI
T2 sequence (Q5HF71 1-1065): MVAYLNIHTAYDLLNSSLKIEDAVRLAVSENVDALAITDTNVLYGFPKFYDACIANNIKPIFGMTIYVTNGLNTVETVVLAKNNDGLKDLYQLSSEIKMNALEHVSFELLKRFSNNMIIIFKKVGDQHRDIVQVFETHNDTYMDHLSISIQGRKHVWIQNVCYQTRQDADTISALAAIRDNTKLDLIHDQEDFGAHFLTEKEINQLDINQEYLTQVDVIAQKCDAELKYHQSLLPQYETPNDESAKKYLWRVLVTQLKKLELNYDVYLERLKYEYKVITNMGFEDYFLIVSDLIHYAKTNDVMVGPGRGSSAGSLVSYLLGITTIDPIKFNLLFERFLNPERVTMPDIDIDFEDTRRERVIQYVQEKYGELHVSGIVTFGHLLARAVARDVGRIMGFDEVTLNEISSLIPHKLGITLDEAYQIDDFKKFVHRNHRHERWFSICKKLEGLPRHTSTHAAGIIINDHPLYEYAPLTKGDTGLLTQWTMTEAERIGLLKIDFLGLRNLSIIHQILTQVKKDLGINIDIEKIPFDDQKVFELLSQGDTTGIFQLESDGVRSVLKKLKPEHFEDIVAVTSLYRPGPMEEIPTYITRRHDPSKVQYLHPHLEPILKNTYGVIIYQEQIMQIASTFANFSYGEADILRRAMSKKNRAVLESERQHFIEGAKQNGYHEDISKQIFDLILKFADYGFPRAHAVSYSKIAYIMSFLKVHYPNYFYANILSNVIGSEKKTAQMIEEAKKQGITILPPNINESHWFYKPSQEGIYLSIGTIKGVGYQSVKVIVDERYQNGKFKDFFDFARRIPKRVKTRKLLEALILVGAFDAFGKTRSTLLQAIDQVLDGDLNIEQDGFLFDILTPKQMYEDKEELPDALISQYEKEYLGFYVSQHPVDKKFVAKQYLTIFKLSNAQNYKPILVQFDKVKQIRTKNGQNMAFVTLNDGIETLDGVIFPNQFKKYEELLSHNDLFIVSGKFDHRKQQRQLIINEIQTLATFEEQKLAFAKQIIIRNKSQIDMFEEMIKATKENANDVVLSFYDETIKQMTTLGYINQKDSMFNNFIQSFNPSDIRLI
As to the kind of experiment: biochemical. The format is biochemical. How it is done:
as §1, §2, §3

The subject of test [3] is Escherichia coli MB5747 (LS 883, tolC). As to the kind of experiment: microbe, parasite or virus in culture. Format: cell-based. The following applies: * = some reduction of growth versus control at […]; for MIC: Escherichia coli, read-out: E. coli LS883 tolC (MIC), MHII broth.
Test [4] has as its system Pseudomonas aeruginosa MB5890 (CB1101, efflux-deleted). The test is described as follows: microbe, parasite or virus in culture. Format: cell-based. The following applies: * = some reduction of growth versus control at […]; for MIC: Pseudomonas aeruginosa, read-out: P. aeruginosa MB5890 efflux-del (MIC), MHII broth.
The subject of test [5] is Staphylococcus aureus MB6266 (MRSA COL). As to the kind of experiment: Nargenicin antibacterial assay (MIC), S. aureus. The format is cell-based. The following applies: Staphylococcus aureus, MRSA, read-out: S. aureus COL (MIC), MHII broth + 50% human serum; * = some reduction of growth versus control at […].
Test [6] has as its system Streptococcus pneumoniae MB6357 (CL 2883). The test is described as follows: Nargenicin antibacterial assay (MIC), S. pneumoniae. The format is cell-based. The following applies: Streptococcus pneumoniae.
[7] abbreviates: read-out: E. coli DnaE IC50 (converted).
Where [8] appears, read: read-out: S. pneumoniae MB2883 (MIC), Isosensitest broth, * = some reduction of growth versus control at […].

Converted amounts (≈) assume the structure as drawn. “And” between values parts separate entries of the source, which are not always exact repeats. Identical values can stand only once. Like-named read-outs stand apart in the source and are kept apart here. A value given as a limit tells only on which side of the number the result lay.

T1 sequence (P10443 whole entry, the tested form may be a part): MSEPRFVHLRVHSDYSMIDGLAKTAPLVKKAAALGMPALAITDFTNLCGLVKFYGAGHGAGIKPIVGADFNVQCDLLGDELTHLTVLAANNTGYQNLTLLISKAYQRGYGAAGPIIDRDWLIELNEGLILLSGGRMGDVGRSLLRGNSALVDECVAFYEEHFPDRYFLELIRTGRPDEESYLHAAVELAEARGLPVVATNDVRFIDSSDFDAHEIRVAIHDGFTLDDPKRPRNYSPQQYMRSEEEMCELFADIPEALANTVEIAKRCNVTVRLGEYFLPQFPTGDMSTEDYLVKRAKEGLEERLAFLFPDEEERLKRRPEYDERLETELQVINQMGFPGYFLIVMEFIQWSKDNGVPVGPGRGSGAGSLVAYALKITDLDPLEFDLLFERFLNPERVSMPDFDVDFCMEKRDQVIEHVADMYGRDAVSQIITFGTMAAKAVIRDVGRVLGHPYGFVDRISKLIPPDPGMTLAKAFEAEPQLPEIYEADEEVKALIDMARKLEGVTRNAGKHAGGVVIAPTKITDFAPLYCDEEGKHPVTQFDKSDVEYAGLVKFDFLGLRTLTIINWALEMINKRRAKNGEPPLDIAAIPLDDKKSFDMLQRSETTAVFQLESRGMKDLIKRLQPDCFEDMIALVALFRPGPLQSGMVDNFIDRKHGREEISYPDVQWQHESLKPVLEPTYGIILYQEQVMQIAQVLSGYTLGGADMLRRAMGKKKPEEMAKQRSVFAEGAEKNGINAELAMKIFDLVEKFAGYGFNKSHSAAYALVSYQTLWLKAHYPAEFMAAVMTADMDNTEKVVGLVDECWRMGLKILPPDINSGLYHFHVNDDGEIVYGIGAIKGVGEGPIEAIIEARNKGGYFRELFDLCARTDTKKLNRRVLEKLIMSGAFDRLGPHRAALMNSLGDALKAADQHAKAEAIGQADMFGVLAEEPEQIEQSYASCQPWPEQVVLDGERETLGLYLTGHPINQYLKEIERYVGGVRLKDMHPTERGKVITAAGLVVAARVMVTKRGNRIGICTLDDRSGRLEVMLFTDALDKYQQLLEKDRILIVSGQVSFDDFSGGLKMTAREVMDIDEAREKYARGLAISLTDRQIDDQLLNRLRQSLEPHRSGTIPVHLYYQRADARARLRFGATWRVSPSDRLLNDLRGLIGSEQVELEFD

For the molecule `CO[C@H]1CC2C=C[C@H]3[C@H]4O[C@]2(/C(C)=C/[C@@H](C)[C@@H]([C@@H](C)OC(=O)OC2CCC(O)CC2)OC1=O)[C@@H]3[C@H](O)[C@@H](C)[C@H]4OC(=O)c1ccc[nH]1` (single isomer, unassigned) [Example 34], the values for the IC50 in test [1] (setting [7]) and in test [2] (S. aureus DnaE IC50) were 106 µM and 0.0106 µM, respectively. The MIC in test [3] is 32 µg/mL (≈ 48.7 µM); in test [4], > 128 µg/mL; in test [5], 32 µg/mL; in test [6] (setting [8]) it was 64 µg/mL (≈ 97.3 µM).
For `CO[C@H]1C[C@H]2C=C[C@H]3[C@H]4O[C@]2(/C(C)=C/[C@@H](C)[C@@H]([C@@H](C)OC(=O)NC(=O)C(Cl)(Cl)Cl)OC1=O)[C@@H]3[C@H](OC(=O)NC(=O)C(Cl)(Cl)Cl)[C@@H](C)[C@H]4OC(=O)c1ccc[nH]1` [Example 1, (3R,4S,7S,8aS,10aR,11R,12R,13R,14R,14aS,14bS,E)-7-methoxy-1,3,13-trimethyl-6-oxo-14-(((2,2,2-trichloroacetyl)carbamoyl)oxy)-4-((R)-1-(((2,2,2-trichloroacetyl)carbamoyl)oxy)ethyl)-3,4,6,7,8,8a,10a,11,12,13,14,14 a-dodecahydro-11,14b-epoxynaphtho[2,1-e]oxecin-12-yl 1H-pyrrole-2-carboxylate], the IC50 is 67.2 µM in test [1] (E. coli DnaE IC50) and 34.7 µM in test [2] (S. aureus DnaE IC50). The MIC was > 8 µg/mL in test [3], > 128 µg/mL in test [4], > 8 µg/mL in test [5] and > 128 µg/mL in test [6] (setting [8]).
On to `CCCNC(=O)O[C@@H]1[C@@H](C)[C@@H](OC(=O)c2ccc[nH]2)[C@@H]2O[C@@]34/C(C)=C/[C@@H](C)[C@@H]([C@@H](C)OC(=O)NCCC)OC(=O)[C@@H](OC)C[C@H]3C=C[C@@H]2[C@@H]14` [Example 3], for which the IC50 in test [1] (setting [7]) was 30.6 µM; in test [2] (S. aureus DnaE IC50), > 146 µM. Further, the MIC in test [3] was > 8 µg/mL; in test [4] it was > 128 µg/mL; in test [5], > 8 µg/mL; in test [6] (setting [8]), > 128 µg/mL.
In the case of `COC1CC2C=CC3C4OC2(C(C)=CC(C)C(C(C)OC(=O)OCCN(CCO)C(CO)(CO)CO)OC1=O)C3C(O)C(C)C4OC(=O)c1ccc[nH]1` (stereo not drawn) [Example 31], the IC50 in test [2] (S. aureus DnaE IC50) is < 0.00799 µM. Also, the MIC in test [3] is 2 µg/mL (≈ 2.66 µM); in test [4] it was 32 µg/mL (≈ 42.6 µM); in test [5] it was 2 µg/mL; in test [6] (setting [8]), > 128 µg/mL.
In test [2] (S. aureus DnaE IC50), `CO[C@H]1CC2C=C[C@H]3[C@H]4O[C@]2(/C(C)=C/[C@@H](C)[C@@H](C(C)O)OC1=O)[C@@H]3[C@H](O)[C@@H](C)[C@H]4OC(=O)c1cc(-c2cccn2C(=O)OC(C)(C)C)c[nH]1` (stereo partly drawn) [Example 45] had an IC50 of 2.2 µM. The MIC in test [3] is > 128 µg/mL; in test [4] it was > 128 µg/mL; in test [5], > 128 µg/mL; in test [6] (setting [8]), 4 µg/mL (≈ 5.88 µM).
Turning to `CO[C@H]1C[C@H]2C=C[C@H]3[C@H]4O[C@]2(/C(C)=C/[C@@H](C)[C@@H]([C@@H](C)O)OC1=O)[C@@H]3[C@H](O)[C@@H](C)[C@H]4O` [Example 152], the MIC was 16 µg/mL (≈ 37.9 µM) in test [3], 16 µg/mL (≈ 37.9 µM) in test [4], > 128 µg/mL in test [5] and > 128 µg/mL in test [6] (setting [8]).
As for `CC[C@H]1OC(=O)[C@@H](OC)C[C@H]2C=C[C@H]3[C@H]4O[C@]2(/C(C)=C/[C@H]1C)[C@@H]3[C@H](O)[C@@H](C)[C@H]4OC(=O)c1ccc[nH]1` [Example 159], the IC50 is 36 µM and 22 µM and 30 µM and 20 µM in test [1] (E. coli DnaE IC50); < 0.006 µM in test [2] (S. aureus DnaE IC50). Further, the MIC in test [3] stood at 4 µg/mL (≈ 8.01 µM); in test [4] it was 32 µg/mL (≈ 64.1 µM); in test [5] it was 2 µg/mL. The “E. coli LS883 tolC (MIC)” value in test [3] (MHII broth) was 2 µg/mL. Moreover, the “P. aeruginosa MB5890 efflux-del (MIC)” value in test [4] (MHII broth) was found to be 16 µg/mL.
Molecule `CO[C@H]1CC2C=C[C@H]3[C@H]4O[C@]2(/C(C)=C/[C@@H](C)[C@@H](C(C)O)OC1=O)[C@@H]3[C@H](O)[C@@H](C)[C@H]4OC(=O)c1cc(-c2ccsc2)c[nH]1` (stereo partly drawn) [Example 165] gave an IC50 in test [2] (S. aureus DnaE IC50) of 4.85 µM. In addition, the MIC in test [3] is 16 µg/mL (≈ 26.8 µM); in test [4], > 128 µg/mL; in test [5], > 128 µg/mL; in test [6] (setting [8]) it was 8 µg/mL (≈ 13.4 µM).
On to `CO[C@H]1C[C@H]2C=C[C@@H]3[C@H]4C(=O)C(C)C(C[N+](=O)[O-])[C@@H]3O[C@@]24/C(C)=C/[C@@H](C)[C@@H]([C@@H](C)OCSC)OC1=O` (stereo partly drawn) [Example 175], for which the IC50 in test [2] (S. aureus DnaE IC50) was > 191 µM. The MIC in test [3], in test [4], in test [5] and in test [6] (setting [8]) was > 128 µg/mL each time.
On to `CO[C@H]1C[C@H]2C=CC3C4[C@H](O)[C@@H](C)[C@@H](OC(=O)c5ccc[nH]5)[C@@H]3O[C@]42/C(C)=C/[C@@H](C)[C@@H]([C@@H](C)OC(=O)C(=O)OCc2cccnc2)OC1=O.O=C(O)C(F)(F)F` [Example 208], for which the IC50 in test [1] (E. coli DnaE IC50) is 3.41 µM; in test [2] (read-out: S. aureus DnaE IC50 (converted)), < 0.00757 µM. The MIC in test [3] was 1 µg/mL; in test [4], 32 µg/mL; in test [6] (read-out: S. pneumoniae MB2883 (MIC)), > 128 µg/mL.
